From the supplement of paper PMC10307832

What was measured:
Assay in all cases: relative viability (nuclei count vs DMSO), 5 days (fraction); higher = more cells survive
Crizotinib + Pemetrexed = compound: C[C@@H](Oc1cc(-c2cnn(C3CCNCC3)c2)cnc1N)c1c(Cl)ccc(F)c1Cl [Crizotinib] + Nc1nc2[nH]cc(CCc3ccc(C(=O)N[C@@H](CCC(=O)O)C(=O)O)cc3)c2c(=O)[nH]1 [Pemetrexed] (partner 0.2 µM)
Summary of the method: (§1)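 Each reported value is a median over duplicate plates. It expresses relative viability: treated-well nuclei count divided by vehicle-well nuclei count. Lung cancer cell lines in 1536-well plates were dosed by pin tool a day after seeding, alone with one drug or with a fixed anchor-drug dose plus five library-drug doses (not always all listed) in √10 steps, and nuclei were counted after 5 days.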

Crizotinib + Lapatinib = compound: C[C@@H](Oc1cc(-c2cnn(C3CCNCC3)c2)cnc1N)c1c(Cl)ccc(F)c1Cl [Crizotinib] + CS(=O)(=O)CCNCc1ccc(-c2ccc3ncnc(Nc4ccc(OCc5cccc(F)c5)c(Cl)c4)c3c2)o1 [Lapatinib] (partner 2 µM)
Summary of the method: as §1

Crizotinib + Linsitinib = compound: C[C@@H](Oc1cc(-c2cnn(C3CCNCC3)c2)cnc1N)c1c(Cl)ccc(F)c1Cl [Crizotinib] + C[C@]1(O)C[C@@H](c2nc(-c3ccc4ccc(-c5ccccc5)nc4c3)c3c(N)nccn32)C1 [Linsitinib] (partner 1 µM)
Summary of the method: as §1

Crizotinib + Luminespib = compound: C[C@@H](Oc1cc(-c2cnn(C3CCNCC3)c2)cnc1N)c1c(Cl)ccc(F)c1Cl [Crizotinib] + CCNC(=O)c1noc(-c2cc(C(C)C)c(O)cc2O)c1-c1ccc(CN2CCOCC2)cc1 [Luminespib] (partner 0.01 µM)
Summary of the method: as §1

| Cell Line | relative viability (Crizotinib + Pemetrexed; first compound 0.01 µM) | relative viability (Crizotinib + Pemetrexed; first compound 0.03162 µM) | relative viability (Crizotinib + Pemetrexed; first compound 0.1 µM) | relative viability (Crizotinib + Pemetrexed; first compound 1 µM) | relative viability (Crizotinib + Lapatinib; first compound 0.01 µM) | relative viability (Crizotinib + Lapatinib; first compound 0.03162 µM) | relative viability (Crizotinib + Lapatinib; first compound 0.1 µM) | relative viability (Crizotinib + Lapatinib; first compound 0.3162 µM) | relative viability (Crizotinib + Lapatinib; first compound 1 µM) | relative viability (Crizotinib + Linsitinib; first compound 0.01 µM) | relative viability (Crizotinib + Linsitinib; first compound 0.03162 µM) | relative viability (Crizotinib + Linsitinib; first compound 0.1 µM) | relative viability (Crizotinib + Linsitinib; first compound 0.3162 µM) | relative viability (Crizotinib + Luminespib; first compound 0.01 µM) | relative viability (Crizotinib + Luminespib; first compound 0.03162 µM) | relative viability (Crizotinib + Luminespib; first compound 0.1 µM) | relative viability (Crizotinib + Luminespib; first compound 0.3162 µM) | relative viability (Crizotinib + Luminespib; first compound 1 µM) | relative viability (Crizotinib + Pemetrexed; first compound 0.3162 µM) | relative viability (Crizotinib + Linsitinib; first compound 1 µM) |
| --- | --- | --- | --- | --- | --- | --- | --- | --- | --- | --- | --- | --- | --- | --- | --- | --- | --- | --- | --- | --- |
| SK-MES-1 | 0.879 | 0.928 | 0.927 | 0.924 | 0.415 | 0.414 | 0.51 | 0.43 | 0.541 | 1.02 | 1.1 | 1.15 | 0.982 | 0.669 | 0.827 | 0.771 | 0.712 | 0.76 |  |  |
| SW 1573 |  | 0.797 | 0.749 | 0.908 | 1.13 | 1.03 | 0.956 | 1.07 | 1.08 | 0.707 | 0.73 | 0.802 | 0.802 | 0.132 | 0.342 | 0.253 | 0.405 | 0.236 | 0.676 |  |
| UMC-11 | 0.864 | 0.76 | 0.732 | 0.841 |  | 0.975 | 1.02 |  | 0.668 |  | 1.04 |  | 1.16 | 0.898 | 1.1 | 0.885 | 0.965 | 1.12 | 0.814 | 0.96 |
